Experimental data taken from patent US20130324508A1, “BIOMARKER FOR PROSTATE CANCER AND METHOD OF USING THE SAME” (UNIVERSITY OF TENNESSEE RESEARCH FOUNDATION, priority 2012, published 2013).
Ends that are not written are not given here.

How the values were obtained:
PC-3 cells = PC-3 cells treated with ERK pathway inhibitor; cited from earlier work
[1] = test system: non-transfected HEK-293 cells; experiment: ERK activation in non-transfected HEK-293 cells (Western blot); format: cell-based; conditions: same ligand concentrations, 5 min
Description: (§1) Briefly, human prostate cancer cells and the cells transfected with GPRC6A will be made quiescent by overnight incubation in serum-free DMEM/F12 containing 0.1% BSA and stimulated with various ligands at different doses. ERK activation will be assessed 5 to 30 minutes after treatment by immunoblotting using anti-phospho-ERK1/2 MAP kinase antibody (Cell Signaling Technology) corrected for the amount of ERK using an anti-ERK1/2 MAP Kinase antibody (Cell Signaling Technology) to measure ERK levels.
(§2) Referring to FIG. 2. […] Here, calcium (1-20 mM), zinc (0.2-0.8 mM), OC (5-60 ng/ml), arginine (5-30 mM), and testosterone-BSA (5-100 nM) are confirmed to be functional ligands for GPRC6A (16-17, 19). […] Calcium (10 mM), zinc (0.2 mM), OC (20 ng/ml), arginine (20 mM), and testosterone-BSA (60 nM) increased phospho-ERK in both of these cells. The HEK cells transfected with GPRC6A or without the plasmid cDNA of GPRC6A or 22Rv1 or PC-3 were incubated in Dulbecco's modified Eagle's medium/F-12 containing 0.1% bovine serum albumin quiescence media and exposed to the extracellular calcium, OC, arginine, or testosterone-BSA at indicated concentrations for 5 min, and ERK activation was determined as described under Materials and Methods. Representative blots are shown, and the results were verified in at least three independent experiments.

PC-3 [2] = experiment: ERK activation in PC-3 prostate cancer cells (Western blot); format: cell-based, human; conditions: PC-3 (androgen receptor negative); calcium 10 mM, zinc 0.2 mM, OC 20 ng/ml, arginine 20 mM, testosterone-BSA 60 nM; 5 min; FIG. 2B
Description: as §1, §2
(§3) To confirm the importance of GPRC6A signaling in prostate cancer cell line, the response to GPRC6A ligands was accessed after knock-down of GPRC6A using siRNA. For these studies, ERK activity was assessed in 22Rv1 and PC-3 cells stably transfected with GPRC6A siRNA-202 and siRNA-514. These responses were compared control groups consisting of mock-transfected cells and transfected cells with a random negative control siRNA plasmid.

22Rv1 [3] = experiment: ERK activation in 22Rv1 prostate cancer cells (Western blot); format: cell-based, human; conditions: 22Rv1 (androgen receptor positive); calcium 10 mM, zinc 0.2 mM, OC 20 ng/ml, arginine 20 mM, testosterone-BSA 60 nM; 5 min; FIG. 2B
Description: as §1, §2, §3

22Rv1 or PC-3 = experiment: Cell proliferation by hemocytometer cell count; format: cell-based, human; conditions: 22Rv1 or PC-3, 72 h culture, versus control without added ligand; FIG. 3
Description: The prostate cancer cell lines 22Rv1, PC-3 and LNcaP and the prostate cell lined RWPE-1 derived from normal prostate were obtained from the American Type Culture Collection (Manassas, Va.). The prostate cells were maintained in RPMI 1640 supplemented with 10% fetal bovine serum (Gibco Life Technologies, Inc.). Cells (10^3 cells/well) were cultured in triplicate in a 96-well flat-bottomed microculture dish using RPMI 1640 containing 10% CFBS in the presence and absence of various concentrations of GPRC6A ligands, including: calcium, amino acids, calcimimetic and OC for 72 h. Cell proliferation was determined by counting cells with a hemocytometer (21).
Now referring to FIG. 3. To determine if GPRC6A ligands enhance prostate cell growth, changes were accessed in cell numbers in 22Rv1 and PC-3 cells exposed to different concentrations of extracellular calcium or OC over a three-day culture period. […] Cell proliferation was determined by counting cells in a hemocytometer method as described in Materials and methods. In all of the above studies, values for relative cell proliferation (expressed as percent of control) represent the mean±SEM of a minimum of three separate experiments. * indicates a significant difference from control and stimulation at p<0.05, respectively.

22Rv1 [4] = experiment: Chemotaxis assay of 22Rv1 cells; format: cell-based, human; conditions: migration toward calcium or OC, various concentrations; FIG. 6C
Description: The migration of 22Rv1 cells stably expressing negative control siRNA and human GPRC6A-specific siRNA using a previously described chemotaxis assay (22). The migration index was calculated, and was defined as number of cells crossing the filter toward calcium or OC (various concentrations)/number of cells migrating toward medium alone (control). Each experiment was performed at least three times, in duplicate.
Now referring to FIG. 6. To assess whether GPRC6A mediates prostate cancer cells chemotaxis and metastases, the ability of calcium and OC to evoke chemotaxis of human prostate cancer cell 22Rv1 expressing GPRC6A was examined. The ligands of GPRC6A, OC, arginine and R1881 stimulated gene expression of PSA (FIG. A) and Runx2 (FIG. B) were attenuated by GPRC6A siRNA in 22Rv1, human prostate cancer cells. […] The experiments were described in Materials and methods. In all of the above studies, values for relative cell proliferation (expressed as percent of control) represent the mean±SEM of a minimum of three separate experiments.

GPRC6A = experiment: ERK activation in HEK-293 cells transfected with GPRC6A (Western blot); format: cell-based; conditions: HEK-293 overexpressing GPRC6A; 5 min; calcium 1-20 mM, zinc 0.2-0.8 mM, OC 5-60 ng/ml, arginine 5-30 mM, testosterone-BSA 5-100 nM; FIG. 2A
Description: as §1, §2

DU145 = conditions: androgen-independent DU145 cells; cited from earlier work
LNCaP = conditions: androgen-dependent LNCaP cells; cited from earlier work
PC-3 [5] = conditions: androgen-independent PC-3 cells; cited from earlier work
PC-3 [6] = experiment: PSA and Runx 2II gene expression in PC-3 cells (real time RT-PCR); format: cell-based, human; conditions: 8 hours stimulation
Description: (§4) Human tissue cDNAs were obtained from Clontech Laboratories, Inc. Total RNA from human prostate cancer cells was isolated with RNeasy Mini Kit (Qiagen Inc., Valencia, Calif.). RT-PCR was done using two-step RNA PCR (Perkin-Elmer). In separate reactions, 2.0 μg of DNase-treated total RNA was reverse-transcribed into cDNA with the respective reverse primers specified below and Moloney murine leukemia virus reverse transcriptase (Gibco Life Technologies, Inc.). Reactions were carried out at 42° C. for 60 min followed by 94° C. for 5 min and 5° C. for 5 min. The products of first-strand cDNA synthesis were directly amplified by PCR using AmpliTaq DNA polymerase (Perkin-Elmer). The primers for human GPRC6A are as follows: hGPRC6A.F203: […] (SEQ ID NO: 1) and hGPRC6A.R630: […] (SEQ ID NO: 2). For housekeeping gene control G3PDH gene, G3PDH.F143: […] (SEQ ID NO: 3) and G3PDH.R1050: […] (SEQ ID NO: 4). For quantitative real time RT-PCR assessment of PSA and Runx 2II genes expression, total RNA was isolated and reverse transcribed from 22Rv1 cells that stimulated with or without OC (80 ng/ml), arginine (30 mM) and R1881 (100 nM) as previously described using specific primer sets. The primers sequences were PSA. For: […] (SEQ ID NO: 5) and PSA.Rev: […] (SEQ ID NO: 6); Runx 2. For: […] (SEQ ID NO: 7) and Runx 2. Rev: […] (SEQ ID NO: 8), and the threshold cycle (Ct) of tested-gene product from the indicated genotype was normalized to the Ct for cyclophilin A as previously described (18).
(§5) After 8 hours stimulation, OC, arginine and R1881 stimulated PSA and Runx 2II gene expression in human prostate cancer 22Rv1 (FIG. 4A and FIG. 4B) and PC-3 cells (FIG. 4C and FIG. 4D). * indicates a significant difference from control and stimulation at p<0.05 respectively.

22Rv1 [7] = experiment: PSA and Runx 2II gene expression in 22Rv1 cells (real time RT-PCR); format: cell-based, human; conditions: 22Rv1, 8 hours stimulation, OC 80 ng/ml, arginine 30 mM, R1881 100 nM
Description: as §4, §5
To investigate whether the observed ligand-induced PSA and Runx2 gene expression in the prostate cancer cells is due to simulation of GPRC6A, the response to GPRC6A ligands was examined after knock-down of GPRC6A. ERK activity was assessed in 22Rv1 stably transfected with GPRC6A siRNA-514 and compared this response to transfected cells with a random negative control siRNA plasmid, which were used as controls.

[8] = target: Human GPRC6A, endogenous in human prostate cancer cell lines 22Rv1 and PC-3 (human) (UniProt Q5T6X5); experiment: cell-based or functional assay
Sequence of UniProt Q5T6X5 (Q5T6X5 19-926): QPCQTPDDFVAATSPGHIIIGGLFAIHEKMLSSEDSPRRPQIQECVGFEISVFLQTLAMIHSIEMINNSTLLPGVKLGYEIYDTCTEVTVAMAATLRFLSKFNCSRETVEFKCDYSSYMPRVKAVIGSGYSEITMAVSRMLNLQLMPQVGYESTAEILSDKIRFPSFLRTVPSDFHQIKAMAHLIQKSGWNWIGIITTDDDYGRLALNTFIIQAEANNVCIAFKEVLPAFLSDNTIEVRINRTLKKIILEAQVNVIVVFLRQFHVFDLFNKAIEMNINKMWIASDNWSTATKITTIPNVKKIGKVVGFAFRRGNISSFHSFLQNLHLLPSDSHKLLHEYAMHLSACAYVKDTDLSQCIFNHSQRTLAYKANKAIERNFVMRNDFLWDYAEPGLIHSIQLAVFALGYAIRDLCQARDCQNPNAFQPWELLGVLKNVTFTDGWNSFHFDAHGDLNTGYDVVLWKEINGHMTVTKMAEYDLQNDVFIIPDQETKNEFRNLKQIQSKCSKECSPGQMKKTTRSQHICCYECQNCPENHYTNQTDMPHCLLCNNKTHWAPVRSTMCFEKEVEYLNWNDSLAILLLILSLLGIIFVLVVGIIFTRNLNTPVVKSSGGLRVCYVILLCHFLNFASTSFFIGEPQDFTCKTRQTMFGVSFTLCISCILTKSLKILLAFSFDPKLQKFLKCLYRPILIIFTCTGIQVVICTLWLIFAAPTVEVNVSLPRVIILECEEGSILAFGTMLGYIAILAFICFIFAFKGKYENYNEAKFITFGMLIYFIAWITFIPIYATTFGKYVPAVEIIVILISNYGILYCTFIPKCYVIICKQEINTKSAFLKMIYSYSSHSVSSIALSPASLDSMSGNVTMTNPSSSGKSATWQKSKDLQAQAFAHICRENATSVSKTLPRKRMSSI

Molecule	ERK response [1]	phospho-ERK (PC-3 [2])	phospho-ERK (22Rv1 [3])	increase in cell number (22Rv1 or PC-3)	chemotaxis of 22Rv1 prostate cancer cells (22Rv1 [4])	stimulation of ERK activity (GPRC6A)	other results
COc1cccc(-c2cc(=O)c3ccccc3o2)c1N [PD98059]	–	–	–	–	–	–	growth-factor-mediated cell proliferation (PC-3 cells): obliterates
[Ca+2].[Cl-].[Cl-] [calcium, calcium chloride]	failed to respond	increased	increased	~30%	induced the chemotaxis	dose-dependent stimulation	–
C[N+](C)(C)CCOC(N)=O [carbachol]	–	–	–	–	–	–	ERK phosphorylation (DU145): ERK phosphorylation is noted; ERK phosphorylation (LNCaP): not; ERK phosphorylation (PC-3 [5]): ERK phosphorylation is noted
OC: Osteocalcin (purified from bovine bone), vitamin-K dependent hormone, GPRC6A ligand (YLDHWLGAPAPYPDPLEPKREVCELNPDCDELADHIGFQEAYRRFYGPV; ends and bridges not checked; cysteine pairing not given here; UniProt P02820 52-100, looked up)	failed to respond	increased	increased	~70%	induced the chemotaxis	dose-dependent stimulation	PSA gene expression (PC-3 [6]; FIG. 4C): stimulated; Runx 2II gene expression (PC-3 [6]; FIG. 4D): stimulated; PSA gene expression (22Rv1 [7]; FIG. 4A): stimulated; Runx 2II gene expression (22Rv1 [7]; FIG. 4B): stimulated
Osteocalcin (purified from bovine bone) (from UniProt P02820 52-100) (ligand)	–	–	–	–	–	–	cell number after 72 h culture of 22Rv1 and PC-3 cells with OC [8]: 70%
